Patent US11819476B2, “Rapamycin analogs and uses thereof” (Janssen Pharmaceutica NV, priority 2019, dated 2023)

These molecules were tested on pS6K1 in MCF7 (assay: AlphaLISA Ultra pS6K1 Assay). Conditions: Homo sapiens, 1.5 h; MCF7 cells, 90 min incubation.
Type: cell-based
Protocol: Example 74: AlphaLISA Ultra pS6K1 Assay
Assay Protocol: • 1. Seed MCF-7 cells in Corning 3701 plate and incubate for 20˜24 hour. 12,000˜16,000 cells will be seeded in 36 μL medium per well. • 2. Change the culture medium with fresh medium and incubate for another 2 hours. • 3. Add 12 μL (4×) compounds into the cell plate by HAMILTON. Final DMSO concentration is 0.5%. Incubate for 90 minutes. • 4. Aspirate 38 μL by HAMILTON, 10 μL rest per well. • 5. Add 10 μL 2× lysis buffer using HAMILTON; total volume in wells is 20 μL. Allow cells to shake for 30 min. Cover plate by plastic foil and store plate at −80° C. up to analysis. • 6. Thaw cell lysate at RT and transfer 10 μL lysate to assay plate (Optiplate-384). • 7. Add 5 μL acceptor beads into assay plate and incubation for 2 hours • 8. Add 5 μL donor beads and incubation for 2 hours • 9. Count the plate by EnSpire Multimode Plate Reader

IC50	Structure (SMILES)
1 to 10 nM	CO[C@@H]1C[C@H](C[C@@H](C)[C@@H]2CC(=O)[C@H](C)/C=C(\C)[C@@H](O)[C@@H](OC)C(=O)[C@H](C)C[C@H](C)/C=C/C=C/C=C(\C)[C@H](OCCOc3ccccc3)C[C@@H]3CC[C@@H](C)[C@@](O)(O3)C(=O)C(=O)N3CCCC[C@H]3C(=O)O2)CC[C@H]1OCCO [Example I-6, (26E,28E,30E,31E,38R,39S,40R,41R,43S,45S,47R,48S,49R,50R,59R)-49,59-dihydroxy-48-[(1R)-2-[(1S,3R,4R)-4-(2-hydroxyethoxy)-3-methoxy-cyclohexyl]-1-methyl-ethyl]-50-methoxy-38,39,40,41,51,52-hexamethyl-47-(2-phenoxyethoxy)-69,70-dioxa-60-azatricyclohexatriaconta-26,28,30(51),31(52)-tetraene-53,54,55,56,57-pentone]
1 to 10 nM	CO[C@@H]1C[C@H](C[C@@H](C)[C@@H]2CC(=O)[C@H](C)/C=C(\C)[C@@H](O)[C@@H](OC)C(=O)[C@H](C)C[C@H](C)/C=C/C=C/C=C(\C)C(OCCOC3CCOCC3)C[C@@H]3CC[C@@H](C)[C@@](O)(O3)C(=O)C(=O)N3CCCC[C@H]3C(=O)O2)CC[C@H]1OCCO (stereo partly drawn) [Example I-13, (25E,27E,29E,30E,36R,37S,38R,39R,42S,44S,47S,48R,49R,58R)-48,58-dihydroxy-47-[(1R)-2-[(1S,3R,4R)-4-(2-hydroxyethoxy)-3-methoxy-cyclohexyl]-1-methyl-ethyl]-49-methoxy-36,37,38,39,50,51-hexamethyl-46-(2-tetrahydropyran-4-yloxyethoxy)-69,70-dioxa-59-azatricyclohexatriaconta-25,27,29(50),30(51)-tetraene-52,53,54,55,56-pentone]
1 to 10 nM	COCCOc1ccc(C2C[C@@H]3CC[C@@H](C)[C@@](O)(O3)C(=O)C(=O)N3CCCC[C@H]3C(=O)O[C@H]([C@H](C)C[C@@H]3CC[C@@H](O)[C@H](OC)C3)CC(=O)[C@H](C)/C=C(\C)[C@H](O)[C@@H](OC)C(=O)[C@H](C)C[C@H](C)/C=C/C=C/C=C/2C)c(OC)c1 (stereo partly drawn) [Example I-24, (26E,28E,30E,31E,38R,39S,40R,41R,43S,45S,48S,49S,50R,59R)-49,59-dihydroxy-48-[(1R)-2-[(1S,3R,4R)-4-hydroxy-3-methoxy-cyclohexyl]-1-methyl-ethyl]-50-methoxy-46-[2-methoxy-4-(2-methoxyethoxy)phenyl]-38,39,40,41,51,52-hexamethyl-69,70-dioxa-60-azatricyclohexatriaconta-26,28,30(51),31(52)-tetraene-53,54,55,56,57-pentone]
0.1 to 1 nM	COCCS(=O)(=O)CCOC1C[C@@H]2CC[C@@H](C)[C@@](O)(O2)C(=O)C(=O)N2CCCC[C@H]2C(=O)O[C@H]([C@H](C)C[C@@H]2CC[C@@H](O)[C@H](OC)C2)CC(=O)[C@H](C)/C=C(\C)[C@@H](O)[C@@H](OC)C(=O)[C@H](C)C[C@H](C)/C=C/C=C/C=C/1C (stereo partly drawn) [Example I-26, (22E,24E,26E,27E,33R,34S,35R,36R,38S,40S,43S,44R,45R,54R)-44,54-dihydroxy-43-[(1R)-2-[(1S,3R,4R)-4-hydroxy-3-methoxy-cyclohexyl]-1-methyl-ethyl]-45-methoxy-42-[2-(2-methoxyethylsulfonyl)ethoxy]-33,34,35,36,46,47-hexamethyl-66,67-dioxa-55-azatricyclohexatriaconta-22,24,26(46),27(47)-tetraene-48,49,50,51,52-pentone]

Further lines, the molecule ahead of its results:

Structure (SMILES)	IC50
CO[C@@H]1C[C@H](C[C@@H](C)[C@@H]2CC(=O)[C@H](C)/C=C(\C)[C@@H](O)[C@@H](OC)C(=O)[C@H](C)C[C@H](C)/C=C/C=C/C=C(\C)[C@H](OCCOC3COC3)C[C@@H]3CC[C@@H](C)[C@@](O)(O3)C(=O)C(=O)N3CCCC[C@H]3C(=O)O2)CC[C@H]1OCCO [Example I-8, (23E,25E,27E,28E,34R,35S,36R,37R,39S,41S,43R,44S,46R,47R,56R)-46,56-dihydroxy-44-[(1R)-2-[(1S,3R,4R)-4-(2-hydroxyethoxy)-3-methoxy-cyclohexyl]-1-methyl-ethyl]-47-methoxy-34,35,36,37,48,49-hexamethyl-43-[2-(oxetan-3-yloxy)ethoxy]-67,68-dioxa-57-azatricyclohexatriaconta-23,25,27(48),28(49)-tetraene-50,51,52,53,54-pentone]	1 to 10 nM
CO[C@@H]1C[C@H](C[C@@H](C)[C@@H]2CC(=O)[C@H](C)/C=C(\C)[C@@H](O)[C@@H](OC)C(=O)[C@H](C)C[C@H](C)/C=C/C=C/C=C(\C)C(OCC3CCCCC3)C[C@@H]3CC[C@@H](C)[C@@](O)(O3)C(=O)C(=O)N3CCCC[C@H]3C(=O)O2)CC[C@H]1OCCO (stereo partly drawn) [Example I-10, (26E,28E,30E,31E,36R,37S,38R,39R,42S,44S,47S,48R,49R,58R)-46-(cyclohexylmethoxy)-48,58-dihydroxy-47-[(1R)-2-[(1S,3R,4R)-4-(2-hydroxyethoxy)-3-methoxy-cyclohexyl]-1-methyl-ethyl]-49-methoxy-36,37,38,39,50,51-hexamethyl-68,69-dioxa-59-azatricyclohexatriaconta-26,28,30(50),31(51)-tetraene-52,53,54,55,56-pentone]	1 to 10 nM
CO[C@@H]1C[C@H](C[C@@H](C)[C@@H]2CC(=O)[C@H](C)/C=C(\C)[C@@H](O)[C@@H](OC)C(=O)[C@H](C)C[C@H](C)/C=C/C=C/C=C(\C)C(OCC3CCCCO3)C[C@@H]3CC[C@@H](C)[C@@](O)(O3)C(=O)C(=O)N3CCCC[C@H]3C(=O)O2)CC[C@H]1OCCO (stereo partly drawn) [Example I-11, (25E,27E,29E,30E,35R,36S,37R,38R,40S,43S,46S,47R,48R,57R)-47,57-dihydroxy-46-[(1R)-2-[(1S,3R,4R)-4-(2-hydroxyethoxy)-3-methoxy-cyclohexyl]-1-methyl-ethyl]-48-methoxy-35,36,37,38,49,50-hexamethyl-45-(tetrahydropyran-2-ylmethoxy)-68,69-dioxa-58-azatricyclohexatriaconta-25,27,29(49),30(50)-tetraene-51,52,53,54,55-pentone]	< 0.1 nM
CO[C@@H]1C[C@H](C[C@@H](C)[C@@H]2CC(=O)[C@H](C)/C=C(\C)[C@@H](O)[C@@H](OC)C(=O)[C@H](C)C[C@H](C)/C=C/C=C/C=C(\C)C(OCCOc3ccccc3)C[C@@H]3CC[C@@H](C)[C@@](O)(O3)C(=O)C(=O)N3CCCC[C@H]3C(=O)O2)CC[C@H]1OCCO (stereo partly drawn) [Example I-12, (26E,28E,30E,31E,38R,39S,40R,41R,43S,45S,48S,49R,50R,59R)-49,59-dihydroxy-48-[(1R)-2-[(1S,3R,4R)-4-(2-hydroxyethoxy)-3-methoxy-cyclohexyl]-1-methyl-ethyl]-50-methoxy-38,39,40,41,51,52-hexamethyl-47-(2-phenoxyethoxy)-69,70-dioxa-60-azatricyclohexatriaconta-26,28,30(51),31(52)-tetraene-53,54,55,56,57-pentone]	0.1 to 1 nM
CO[C@@H]1C[C@H](C[C@@H](C)[C@@H]2CC(=O)[C@H](C)/C=C(\C)[C@@H](O)[C@@H](OC)C(=O)[C@H](C)C[C@H](C)/C=C/C=C/C=C(\C)C(OCCOC3COC3)C[C@@H]3CC[C@@H](C)[C@@](O)(O3)C(=O)C(=O)N3CCCC[C@H]3C(=O)O2)CC[C@H]1OCCO (stereo partly drawn) [Example I-14, (23E,25E,27E,28E,34R,35S,36R,37R,39S,41S,44S,46R,47R,56R)-46,56-dihydroxy-44-[(1R)-2-[(1S,3R,4R)-4-(2-hydroxyethoxy)-3-methoxy-cyclohexyl]-1-methyl-ethyl]-47-methoxy-34,35,36,37,48,49-hexamethyl-43-[2-(oxetan-3-yloxy)ethoxy]-67,68-dioxa-57-azatricyclohexatriaconta-23,25,27(48),28(49)-tetraene-50,51,52,53,54-pentone]	0.1 to 1 nM
COCCS(=O)(=O)CCOC1C[C@@H]2CC[C@@H](C)[C@@](O)(O2)C(=O)C(=O)N2CCCC[C@H]2C(=O)O[C@H]([C@H](C)C[C@@H]2CC[C@@H](OCCO)[C@H](OC)C2)CC(=O)[C@H](C)/C=C(\C)[C@@H](O)[C@@H](OC)C(=O)[C@H](C)C[C@H](C)/C=C/C=C/C=C/1C (stereo partly drawn) [Example I-25, (22E,24E,26E,27E,35R,36S,37R,38R,40S,42S,45S,46R,47R,56R)-46,56-dihydroxy-45-[(1R)-2-[(1S,3R,4R)-4-(2-hydroxyethoxy)-3-methoxy-cyclohexyl]-1-methyl-ethyl]-47-methoxy-44-[2-(2-methoxyethylsulfonyl)ethoxy]-35,36,37,38,48,49-hexamethyl-68,69-dioxa-57-azatricyclohexatriaconta-22,24,26(48),27(49)-tetraene-50,51,52,53,54-pentone]	0.1 to 1 nM
CO[C@@H]1C[C@H](C[C@@H](C)[C@@H]2CC(=O)[C@H](C)/C=C(\C)[C@@H](O)[C@@H](OC)C(=O)[C@H](C)C[C@H](C)/C=C/C=C/C=C(\C)[C@H](OCCCC(N)=O)C[C@@H]3CC[C@@H](C)[C@@](O)(O3)C(=O)C(=O)N3CCCC[C@H]3C(=O)O2)CC[C@H]1OCCO [Example I-28, 4-[[(21E,23E,25E,26E,33R,34S,35R,36R,38S,40S,42R,43S,44R,45R,55R)-44,55-dihydroxy-43-[(1R)-2-[(1S,3R,4R)-4-(2-hydroxyethoxy)-3-methoxy-cyclohexyl]-1-methyl-ethyl]-45-methoxy-33,34,35,36,46,47-hexamethyl-48,49,50,51,52-pentaoxo-67,68-dioxa-57-azatricyclohexatriaconta-21,23,25(46),26(47)-tetraen-42-yl]oxy]butanamide]	10 to 100 nM
